Measurements published in PubChem BioAssay AID489027 (Sanford-Burnham Center for Chemical Genomics, 2010).
Activity calls are given as the source filed them. The rule behind the calls is not given here.

Molecular target: UPR counterscreen luciferase reporter, luminescence
Test: luciferase reporter activation, UPR counterscreen line – cell-based, luminescence, counter-screen for adaptive UPR activator project, dose response (AID 489027)

EC50	SMILES
inactive	Cn1nc(C(F)(F)F)c(/C=N/OC(=O)c2ccccc2)c1SCc1ccc(Cl)cc1
16.8 µM	O=C(C[n+]1ccc(-c2cc(C(=O)Nc3cccc(C(F)(F)F)c3)c3ccccc3n2)cc1)c1cccc([N+](=O)[O-])c1
inactive	Cc1ccccc1OCc1nc(-c2ccc(NC(=O)c3ccc4c(c3)OCO4)cc2)no1
19 µM	Cc1ccnc(N/C=C(\C#N)c2nc(-c3cccc(Br)c3)cs2)c1
7.27 µM	Cc1cc(C)cc(NC(=O)/C(C#N)=C/c2cn(CC(=O)NCc3ccco3)c3ccccc23)c1
inactive	Cc1nc(NC(=O)CSc2ccc(-c3nc4ccccc4[nH]3)cn2)sc1C
> 80 µM (inactive)	COc1ccc(-c2cc(C(F)F)n3ncc(C(=O)Nc4ccc(C(=O)N5CCOCC5)cc4)c3n2)cc1
> 80 µM (inactive)	CC(C)N=C(NS(=O)(=O)c1ccccc1)C(Cl)(Cl)Cl
4.95 µM	Cc1ccc(C(C)C)c(OCc2ccc(C(=O)N/N=C/c3ccc(O)c(O)c3)cc2)c1
> 80 µM (inactive)	O=S(=O)(c1ccc2nc(-c3ccccc3)[nH]c2c1)N1CCN(c2ccc(Cl)cc2)CC1
4.72 µM	O=C(Nc1ccc(-c2nc3cc(NC(=O)c4cccs4)ccc3o2)cc1)c1cccs1
inactive	CCc1ccc2[nH]c3nc(SCC(=O)NNC(=O)c4ccc(C(C)(C)C)cc4)nnc3c2c1
2.33 µM	CCCCCCCC(=O)Nc1ccc(C(=O)N/N=C/c2cccc([N+](=O)[O-])c2)cc1
inactive	COC(=O)c1c(NC(=O)CC2Nc3ccccc3NC2=O)sc(C)c1C (stereo not given)
> 80 µM (inactive)	N/C(=N\c1nc(CSc2ccccn2)cc(=O)[nH]1)Nc1ccc(Cl)cc1Cl
> 80 µM (inactive)	CCOC(=O)c1cc(NC(=O)c2ccc(Cl)cc2)c(=O)n2c1oc1ccc(Cl)cc12
14.3 µM	Cc1ccc(C(=O)N2N=C(c3ccc(Br)cc3)CC2c2ccccc2O)cc1 (stereo not given)
> 80 µM (inactive)	O=C(CSc1nc2ccc(Nc3nc(N4CCOCC4)nc(N4CCOCC4)n3)cc2s1)Nc1ccccc1F
inactive	CN(C)C(=O)CCc1ccc2c3c([nH]c2c1)[C@]1(CCc2ccccc2)[C@@H](C(=O)N2CCCCC2)C[C@H](CC(=O)NCCC2=CCCCC2)C(=O)N1CC3
inactive	Cc1ccc(C(=O)Nc2cc(S(=O)(=O)N3CCOCC3)ccc2N2CCCC2)cc1
18 µM	Oc1ccc(-c2nc3ccc4ccccc4c3c3c2CCC3)cc1O
12.1 µM	Cc1ccc(-c2nnc(-c3ccc(NC(=O)c4cccs4)cc3)o2)cc1
19.6 µM	CC(C)=CCCC1(C)C=Cc2c(ccc3c2[nH]c2cc(O)c(C)cc23)O1 (stereo not given)

EC50	SMILES
3.67 µM	Cc1nn(Cc2c(Cl)cccc2Cl)c(C)c1NC(=O)c1cn(-c2ccccc2)nc1-c1ccccc1
inactive	O=C(CC1C[C@H](C(=O)N2CCCCC2)[C@@]2(CCc3ccccc3)c3[nH]c4ccccc4c3CCN2C1=O)NCCC1=CCCCC1 (stereo not given in full)
> 80 µM (inactive)	CCCNC(=O)/C(C#N)=C1\N=C(NC(=O)c2cccs2)c2ccccc21
> 80 µM (inactive)	COc1cc(NC(=O)c2cccs2)ccc1NC(=O)c1cc2ccccc2o1
15.8 µM	CCC1CCc2c(sc3nc(SCC(=O)NCc4ccco4)n(-c4ccccc4)c(=O)c23)C1 (stereo not given)
> 80 µM (inactive)	Cc1ccc(-c2nnc(-c3ccc(NC(=O)Cc4cccs4)cc3)o2)cc1
15.6 µM	N#CCC(=O)N/N=C/c1cn(Cc2ccc3ccccc3c2)c2ccccc12
> 80 µM (inactive)	Cc1ccc(Cn2c(SCC(=O)Nc3cc(C)on3)nc3ccccc3c2=O)cc1
13.1 µM	Cc1ccc(-c2nn(CC(=O)NCc3cc(-c4nn(C)c(=O)c5ccccc45)ccc3C)c(=O)c3ccccc23)cc1
> 80 µM (inactive)	COC(=O)c1sccc1NC(=O)c1cc(-c2cccc(C)c2)nc2ccccc12
10.7 µM	CCc1nc(N=Nc2c(O)[nH]c3ccccc23)c2c3c(sc2n1)CCC3
9.03 µM	O=C(NCc1ccccc1Br)c1cccc2c1C(=O)c1ccc(-c3ccc(OC(F)(F)F)cc3)cc1S2(=O)=O
> 80 µM (inactive)	COc1ccc(OC)c(-c2nnc3n2N=C(c2ccc(OC)c(OC)c2)CS3)c1
> 80 µM (inactive)	N#CCC(=O)N/N=C/c1cn(Cc2cccc3ccccc23)c2ccccc12
> 80 µM (inactive)	Cc1ccc(Nc2nc(NCc3ccco3)c3ccccc3n2)cc1
> 80 µM (inactive)	Cc1cccc2c1Sc1ccc(Cl)cc1CC2N1CCNCC1 (stereo not given)
13.3 µM	N#C/C(=C\c1ccc(OCc2ccccc2)cc1)C(=O)Nc1nc2c(s1)CCN(Cc1ccccc1)C2
inactive	C=CCOc1ccc2cccc(/C=N/NC(=O)c3cc4cc([N+](=O)[O-])ccc4s3)c2c1
> 80 µM (inactive)	COc1cc(N(C(=O)Cc2cccs2)C(C(=O)NC2CCCCC2)c2ccc(C)cc2)ccc1-n1cnnn1 (stereo not given)
16.8 µM	COc1cccc2sc(N3CCN(c4nc5ccccc5s4)CC3)nc12
8.7 µM	CCOC(=O)c1c(NC(=O)c2cc3n(n2)C(C(F)(F)F)CC(c2cccs2)N3)sc(C)c1C (stereo not given)
8.79 µM	O=c1cc(CN2CCN(c3ccc(F)cc3)CC2)c2cc3c(cc2o1)CCCC3
